Source: patent US11357779B2 (G1 Therapeutics, Inc., priority 2018, dated 2022)

Test: Noncompartmental pharmacokinetic parameters (Cmax, Tmax, AUC, Racc) in QD and BID cohorts of Form B
Assay type: in vivo, human
Conditions: for Racc (Max) / Racc (Mean) / Racc (Median) / Racc (Min): AUCDay 29/AUCDay 1
Experimental: Analysis of plasma concentration versus time data for calculation of standard pharmacokinetic (PK) parameters following oral administration was conducted using Phoenix WinNonlin version 6.3 using actual blood sampling times.
The following pharmacokinetic parameters were calculated from the concentration versus time data obtained in Example 1 for each of the above QD (200 mg, 300 mg, 400 mg, 500 mg, or 650 mg dosed) and BID (100 mg, 150 mg, or 200 mg doses) Form B of Compound II dosage cohorts: • Cmax—the observed peak plasma concentration determined from the plasma concentration versus time data obtained on Day 1 and Day 29, as applicable; • Tmax—the time to reach the observed peak plasma concentration from the plasma concentration versus time data obtained on Day 1 and Day 29, as applicable; • AUC—area under the plasma concentration versus time curve during a dosing interval on Day 1 and Day 29, as applicable; and • Racc—accumulation ratio calculated as AUCDay 29/AUCDay 1.

[1] = Cohort 1, 200 mg QD of Form B, Day 1
[2] = Cohort 2, 300 mg QD of Form B, Day 1
[3] = Cohort 3, 400 mg QD of Form B, Day 1
[4] = Cohort 4, 500 mg QD of Form B, Day 1
[5] = Cohort 5, 650 mg QD of Form B, Day 1
[6] = Cohort 6, 100 mg BID of Form B, Day 1
[7] = Compound I, 100 mg BID of Form B, Cohort 6
[8] = Compound I, 100 mg BID of Form B, Cohort 6, Day 29
[9] = Compound I, 150 mg BID of Form B, Cohort 7
[10] = Compound I, 150 mg BID of Form B, Cohort 7, Day 1
[11] = Compound I, 150 mg BID of Form B, Cohort 7, Day 29
[12] = Compound I, 200 mg BID of Form B, Cohort 7, Day 1
[13] = Compound I, 200 mg BID of Form B, Cohort 8
[14] = Compound I, 200 mg BID of Form B, Cohort 8, Day 29
[15] = Compound I, 200 mg QD of Form B, Cohort 1
[16] = Compound I, 200 mg QD of Form B, Cohort 1, Day 29
[17] = Compound I, 300 mg QD of Form B, Cohort 2
[18] = Compound I, 300 mg QD of Form B, Cohort 2, Day 29
[19] = Compound I, 400 mg QD of Form B, Cohort 3
[20] = Compound I, 400 mg QD of Form B, Cohort 3, Day 29
[21] = Compound I, 500 mg QD of Form B, Cohort 4
[22] = Compound I, 500 mg QD of Form B, Cohort 4, Day 29
[23] = Compound I, 650 mg QD of Form B, Cohort 5
[24] = Compound I, 650 mg QD of Form B, Cohort 5, Day 29

In the case of `CC(C)N1CCN(c2ccc(Nc3ncc4cc5n(c4n3)C3(CCCCC3)CNC5=O)nc2)CC1` [Compound I, 2′-((5-(4-isopropylpiperazin-1-yl)pyridin-2-yl)amino)-7′,8′-dihydro-6′H-spiro[cyclohexane-1,9′-pyrazino[1′,2′:1,5]pyrrolo[2,3-d]pyrimidin]-6′-one], the “AUClast (Max)” value [1] is reported as 355 ng·h/mL, the “AUClast (Min)” value [1] is reported as 98.9 ng·h/mL and the “Cmax (Max)” value [1] is reported as 40.0 ng/mL. The “Cmax (Min)” value [1] was 8.26 ng/mL, the “AUClast (Max)” value [2] was 580 ng·h/mL and the “AUClast (Min)” value [2] was 106 ng·h/mL. For the same compound, the “AUClast (Max)” value [3] was 248 ng·h/mL, the “AUClast (Min)” value [3] was 177 ng·h/mL and the “Cmax (Max)” value [3] was 24.4 ng/mL. For the same compound, the “Cmax (Min)” value [3] was 14.4 ng/mL, the “AUClast (Max)” value [4] was 684 ng·h/mL and the “AUClast (Min)” value [4] was 403 ng·h/mL. For the same compound, the “Cmax (Max)” value [4] was 68.7 ng/mL, the “Cmax (Min)” value [4] was 27.8 ng/mL and the “AUClast (Max)” value [5] was 1040 ng·h/mL. The “AUClast (Min)” value [5] was 482 ng·h/mL, the “Cmax (Max)” value [5] was 80.7 ng/mL and the “Cmax (Min)” value [5] was 38.2 ng/mL. For the same compound, the “Tmax (Max)” value [5] was 10.0 h, the “AUClast (Max)” value [6] was 92.6 ng·h/mL and the “AUClast (Min)” value [6] was 42.8 ng·h/mL. The “Cmax (Max)” value [6] was 14.7 ng/mL, the “Cmax (Min)” value [6] was 7.25 ng/mL and the “Racc (Max)” value [7] was 2.96 (h * ng/mL)/(h * ng/mL). For the same compound, the “Racc (Mean)” value [7] was 1.90 (h * ng/mL)/(h * ng/mL), the “Racc (Median)” value [7] was 2.06 (h * ng/mL)/(h * ng/mL) and the “Racc (Min)” value [7] was 0.931 (h * ng/mL)/(h * ng/mL). The “AUClast (Max)” value [8] was 183 ng·h/mL, the “AUClast (Min)” value [8] was 41.1 ng·h/mL and the “Cmax (Max)” value [8] was 20.5 ng/mL. For the same compound, the “Cmax (Min)” value [8] was 5.14 ng/mL, the “Tmax (Max)” value [8] was 12.0 h and the “Tmax (Min)” value [8] was 60 min. For the same compound, the “Racc (Max)” value [9] was 7.71 (h * ng/mL)/(h * ng/mL), the “Racc (Mean)” value [9] was 3.88 (h * ng/mL)/(h * ng/mL) and the “Racc (Median)” value [9] was 2.28 (h * ng/mL)/(h * ng/mL). The “Racc (Min)” value [9] was 1.66 (h * ng/mL)/(h * ng/mL), the “AUClast (Max)” value [10] was 146 ng·h/mL and the “AUClast (Min)” value [10] was 103 ng·h/mL. The “Cmax (Max)” value [10] was 28.3 ng/mL, the “Cmax (Min)” value [10] was 12.2 ng/mL and the “AUClast (Max)” value [11] was 795 ng·h/mL. For the same compound, the “AUClast (Min)” value [11] was 235 ng·h/mL, the “Cmax (Max)” value [11] was 83.2 ng/mL and the “AUClast (Max)” value [12] was 185 ng·h/mL. The “AUClast (Min)” value [12] was 37.9 ng·h/mL, the “Cmax (Max)” value [12] was 29.0 ng/mL and the “Cmax (Min)” value [12] was 5.28 ng/mL. For the same compound, the “Racc (Max)” value [13] was 2.15 (h * ng/mL)/(h * ng/mL), the “Racc (Mean)” value [13] was 2.06 (h * ng/mL)/(h * ng/mL) and the “Racc (Median)” value [13] was 2.11 (h * ng/mL)/(h * ng/mL). For the same compound, the “Racc (Min)” value [13] was 1.91 (h * ng/mL)/(h * ng/mL), the “AUClast (Max)” value [14] was 306 ng·h/mL and the “AUClast (Min)” value [14] was 79.8 ng·h/mL. For the same compound, the “Cmax (Max)” value [14] was 40.8 ng/mL, the “Cmax (Min)” value [14] was 7.69 ng/mL and the “Tmax (Max)” value [14] was 12.0 h. The “Racc (Max)” value [15] was 1.72 (h * ng/mL)/(h * ng/mL), the “Racc (Mean)” value [15] was 1.17 (h * ng/mL)/(h * ng/mL) and the “Racc (Median)” value [15] was 1.15 (h * ng/mL)/(h * ng/mL). For the same compound, the “Racc (Min)” value [15] was 0.740 (h * ng/mL)/(h * ng/mL), the “AUClast (Max)” value [16] was 407 ng·h/mL and the “AUClast (Min)” value [16] was 73.2 ng·h/mL. The “Cmax (Max)” value [16] was 32.0 ng/mL, the “Cmax (Min)” value [16] was 5.90 ng/mL and the “Racc (Max)” value [17] was 3.62 (h * ng/mL)/(h * ng/mL). The “Racc (Mean)” value [17] was 2.03 (h * ng/mL)/(h * ng/mL), the “Racc (Median)” value [17] was 1.42 (h * ng/mL)/(h * ng/mL) and the “Racc (Min)” value [17] was 1.04 (h * ng/mL)/(h * ng/mL). The “AUClast (Max)” value [18] was 789 ng·h/mL, the “AUClast (Min)” value [18] was 384 ng·h/mL and the “Cmax (Max)” value [18] was 73.0 ng/mL. The “Cmax (Min)” value [18] was 27.5 ng/mL, the “Tmax (Max)” value [18] was 10.0 h and the “Racc (Max)” value [19] was 1.90 (h * ng/mL)/(h * ng/mL). The “Racc (Mean)” value [19] was 1.35 (h * ng/mL)/(h * ng/mL), the “Racc (Median)” value [19] was 1.50 (h * ng/mL)/(h * ng/mL) and the “Racc (Min)” value [19] was 0.653 (h * ng/mL)/(h * ng/mL). The “AUClast (Max)” value [20] was 371 ng·h/mL, the “AUClast (Min)” value [20] was 115 ng·h/mL and the “Cmax (Max)” value [20] was 26.7 ng/mL. The “Cmax (Min)” value [20] was 6.94 ng/mL, the “Racc (Max)” value [21] was 1.47 (h * ng/mL)/(h * ng/mL) and the “Racc (Mean)” value [21] was 1.12 (h * ng/mL)/(h * ng/mL). The “Racc (Median)” value [21] was 0.965 (h * ng/mL)/(h * ng/mL), the “Racc (Min)” value [21] was 0.932 (h * ng/mL)/(h * ng/mL) and the “AUClast (Max)” value [22] was 660 ng·h/mL. The “AUClast (Min)” value [22] was 570 ng·h/mL, the “Cmax (Max)” value [22] was 48.2 ng/mL and the “Cmax (Min)” value [22] was 36.4 ng/mL. For the same compound, the “Racc (Max)” value [23] was 1.47 (h * ng/mL)/(h * ng/mL), the “Racc (Mean)” value [23] was 1.12 (h * ng/mL)/(h * ng/mL) and the “Racc (Median)” value [23] was 0.965 (h * ng/mL)/(h * ng/mL). The “Racc (Min)” value [23] was 0.932 (h * ng/mL)/(h * ng/mL), the “AUClast (Max)” value [24] was 660 ng·h/mL and the “AUClast (Min)” value [24] was 570 ng·h/mL. For the same compound, the “Cmax (Max)” value [24] was 48.2 ng/mL and the “Cmax (Min)” value [24] was 36.4 ng/mL.
